From patent publication US20190358181A1, “METHODS FOR AUTISM SPECTRUM DISORDER PHARMACOTHERAPY” (priority 2017, published 2019)

Test system: 610 metabolites from 63 biochemical pathways
Assay: Targeted broad-spectrum plasma metabolomic analysis (LC-MS/MS), paired pre-infusion vs post-infusion (2-days and 6-weeks)
Type: in vivo, human
Settings: plasma, 2-days after infusion vs pre-infusion
Method: Targeted, broad-spectrum, plasma metabolomic analysis of 610 metabolites from 63 biochemical pathways was performed by high performance liquid chromatography and tandem mass spectrometry (LC-MS/MS) on the samples collected from patients in Example 1. Venous blood was collected between the hours of 8 am and 5 pm, at least 3 hours after the last meal, into lithium-heparin vacutainer tubes (BD #367884). Plasma was separated by centrifugation at 900 g×10 minutes at room temperature within one hour of collection. The resulting fresh lithium-heparin plasma was transferred to labeled 1.2 ml or 2.0 ml externally threaded cryotubes with a minimum headspace air gap for storage at −80° C. for analysis. Samples were analyzed on an AB SCIEX QTRAP 5500 triple quadrupole mass spectrometer equipped with a Turbo V electrospray ionization (ESI) source, Shimadzu LC-20A UHPLC system, and a PAL CTC autosampler. Typically, 90 μl of plasma was thawed on ice and transferred to a 1.7 ml Eppendorf tube. Five (5.0) μl of a cocktail containing 25-35 commercial stable isotope internal standards, and 5.0 μl of 57 stable isotope internal standards that were custom-synthesized in E. coli NCM3722, Caenorhabditis elegans N2, and Komagataella phaffii (ATCC 76273; formerly known as Pichia pastoris) by metabolic labeling with 13C-glucose and 13C-bicarbonate, were added, mixed, and incubated for 10 min at 20° C. to permit small molecules and vitamins in the internal standards to associate with plasma binding proteins. Macromolecules (protein, DNA, RNA, glycans, etc.) were precipitated by extraction with 4 volumes (400 μl) of cold (−20° C.), acetonitrile:methanol (50:50) (LCMS grade, Cat #LC015-2.5 and GC230-4, Burdick & Jackson, Honeywell), vortexed vigorously, and incubated on crushed ice for 10 min, then removed by centrifugation at 16,000 g×10 min at 4° C. The supernatants containing the extracted metabolites and internal standards in the resulting 40:40:20 solvent mix of acetonitrile:methanol:water were transferred to labeled cryotubes and stored at −80° C. for LCMS/MS analysis.
LC-MS/MS analysis was performed by scheduled multiple reaction monitoring (sMRM) under Analyst v1.6.2 software control in both negative and positive mode with rapid polarity switching (50 ms). Nitrogen was used for curtain gas (set to 30), collision gas (set to high), ion source gas 1 and 2 (set to 35). The source temperature was 500° C. Spray voltage was set to −4500 V in negative mode and 5500 V in positive mode. The values for Q1 and Q3 mass-to-charge ratios (m/z), declustering potential (DP), entrance potential (EP), collision energy (CE), and collision cell exit potential (CXP) were determined and optimized for each MRM for each metabolite. Ten microliters of extract was injected by PAL CTC autosampler via a 10 μl stainless steel loop into a 250 mm×2.0 mm, 4 μm polymer based NH2 HPLC column (Asahipak NH2P-40 2E, Showa Denko America, Inc., NY) held at 25° C. for chromatographic separation. The mobile phase was solvent A: 95% water with 20 mM (NH4)2CO3 (Sigma, Fluka Cat #74415-250G-F), 5% acetonitrile, and 38 mM NH4OH (Sigma, Fluka Cat #17837-100ML), final pH 9.75; solvent B: 100% acetonitrile. Separation was achieved using the following gradient: 0-3.5 min: 95% B, 3.6-8 min: 85% B, 8.1-13 min: 75% B, 13.5-35 min: 0% B, 36-46 min: 95% B, 46.1 min: end. The flow rate was 200 μl/min. Pump pressures ranged from 920-2600 psi over the course of the gradient. All the samples were kept at 4° C. during analysis. The chromatographic peaks were identified using MultiQuant (v3.0, Sciex), confirmed by manual inspection, and the peak areas integrated. […]

[1] = Cholesterol, Cortisol, Non-Gonadal Steroid Metabolism
[2] = Eicosanoid and Resolvin Metabolism
[3] = Fatty Acid Oxidation and Synthesis
[4] = GABA, Glutamate, Arginine, Ornithine, Proline Metabolism
[5] = Gamma-Glutamyl and other Dipeptides
[6] = Glycolysis and Gluconeogenesis Metabolism
[7] = Histidine, Histamine, Carnosine Metabolism
[8] = Nitric Oxide, Superoxide, Peroxide Metabolism

Cc1ccc(C(=O)Nc2ccc(S(=O)(=O)O)c3cc(S(=O)(=O)O)cc(S(=O)(=O)O)c23)cc1NC(=O)c1cccc(NC(=O)Nc2cccc(C(=O)Nc3cc(C(=O)Nc4ccc(S(=O)(=O)O)c5cc(S(=O)(=O)O)cc(S(=O)(=O)O)c45)ccc3C)c2)c1 [Suramin, suramin]
Z Abs, Ceramide(d18:1/18:2) (Ceramide Metabolism): 0.530 | Z Score, Ceramide(d18:1/18:2) (Ceramide Metabolism): 0.530 | Linear Ratio, 24,25-Epoxycholesterol [1]: 1.362 | VIP Score, 24,25-Epoxycholesterol [1]: 1.807 | Z Abs, 24,25-Epoxycholesterol [1]: 1.014 | Z Score, 24,25-Epoxycholesterol [1]: 1.014 | Linear Ratio, 5-HETE [2]: 0.866 | Linear Ratio, 11(R)-HETE [2]: 0.748 | Linear Ratio, 11,12-Epoxyeicosatrienoic acid [2]: 0.828 | Linear Ratio, Prostaglandin J2 [2]: 0.649 | VIP Score, 5-HETE [2]: 1.646 | VIP Score, 11(R)-HETE [2]: 2.400 | VIP Score, 11,12-Epoxyeicosatrienoic acid [2]: 1.535 | VIP Score, Prostaglandin J2 [2]: 1.509 | Z Abs, 5-HETE [2]: 0.671 | Z Abs, 11(R)-HETE [2]: 0.875 | Z Abs, 11,12-Epoxyeicosatrienoic acid [2]: 0.634 | Z Abs, Prostaglandin J2 [2]: 0.601 | Z Score, 5-HETE [2]: −0.671 | Z Score, 11(R)-HETE [2]: −0.875 | Z Score, 11,12-Epoxyeicosatrienoic acid [2]: −0.634 | Z Score, Prostaglandin J2 [2]: −0.601 | Linear Ratio, Anandamide (Endocannabinoid Metabolism): 0.684 | VIP Score, Anandamide (Endocannabinoid Metabolism): 1.713 | Z Abs, Anandamide (Endocannabinoid Metabolism): 0.709 | Z Score, Anandamide (Endocannabinoid Metabolism): −0.709 | Linear Ratio, Malonic acid [3]: 0.904 | VIP Score, Malonic acid [3]: 1.833 | Z Abs, Malonic acid [3]: 0.825 | Z Score, Malonic acid [3]: −0.825 | Linear Ratio, Gamma-Aminobutyric acid [4]: 1.068 | Linear Ratio, L-Proline [4]: 1.155 | Linear Ratio, N-Acetylglutamic acid [4]: 1.120 | VIP Score, Gamma-Aminobutyric acid [4]: 1.626 | VIP Score, L-Proline [4]: 1.548 | VIP Score, N-Acetylglutamic acid [4]: 1.505 | Z Abs, Gamma-Aminobutyric acid [4]: 1.101 | Z Abs, L-Proline [4]: 0.603 | Z Abs, N-Acetylglutamic acid [4]: 0.613 | Z Score, Gamma-Aminobutyric acid [4]: 1.101 | Z Score, L-Proline [4]: 0.603 | Z Score, N-Acetylglutamic acid [4]: 0.613 | Linear Ratio, Gamma-glutamyl-Alanine [5]: 1.294 | Linear Ratio, Glycylproline [5]: 1.773 | VIP Score, Gamma-glutamyl-Alanine [5]: 1.575 | VIP Score, Glycylproline [5]: 2.205 | Z Abs, Gamma-glutamyl-Alanine [5]: 0.896 | Z Abs, Glycylproline [5]: 1.212 | Z Score, Gamma-glutamyl-Alanine [5]: 0.896 | Z Score, Glycylproline [5]: 1.212 | Linear Ratio, 2,3-Diphosphoglyceric acid [6]: 1.198 | Linear Ratio, Glycerol 3-phosphate [6]: 1.187 | VIP Score, 2,3-Diphosphoglyceric acid [6]: 2.600 | VIP Score, Glycerol 3-phosphate [6]: 1.651 | Z Abs, 2,3-Diphosphoglyceric acid [6]: 0.990 | Z Abs, Glycerol 3-phosphate [6]: 1.151 | Z Score, 2,3-Diphosphoglyceric acid [6]: 0.990 | Z Score, Glycerol 3-phosphate [6]: 1.151 | Linear Ratio, GC(18:1/22:0) (Glycosphingolipid Metabolism): 1.399 | VIP Score, GC(18:1/22:0) (Glycosphingolipid Metabolism): 2.123 | Z Abs, GC(18:1/22:0) (Glycosphingolipid Metabolism): 1.057 | Z Score, GC(18:1/22:0) (Glycosphingolipid Metabolism): 1.057 | Linear Ratio, 1-Methylhistidine [7]: 1.145 | VIP Score, 1-Methylhistidine [7]: 1.848 | Z Abs, 1-Methylhistidine [7]: 0.899 | Z Score, 1-Methylhistidine [7]: 0.899 | Linear Ratio, Citramalic acid (Krebs Cycle): 1.121 | Linear Ratio, Citric acid (Krebs Cycle): 1.142 | VIP Score, Citramalic acid (Krebs Cycle): 1.704 | VIP Score, Citric acid (Krebs Cycle): 1.590 | Z Abs, Citramalic acid (Krebs Cycle): 1.229 | Z Abs, Citric acid (Krebs Cycle): 0.759 | Z Score, Citramalic acid (Krebs Cycle): 1.229 | Z Score, Citric acid (Krebs Cycle): 0.759 | Linear Ratio, 2-Keto-L-gluconate (Microbiome Metabolism): 1.264 | Linear Ratio, Indoxyl sulfate (Microbiome Metabolism): 1.280 | Linear Ratio, Shikimate-3-phosphate (Microbiome Metabolism): 1.047 | Linear Ratio, p-Hydroxyphenylacetic acid (Microbiome Metabolism): 1.192 | VIP Score, 2-Keto-L-gluconate (Microbiome Metabolism): 2.994 | VIP Score, Indoxyl sulfate (Microbiome Metabolism): 1.858 | VIP Score, Shikimate-3-phosphate (Microbiome Metabolism): 1.886 | VIP Score, p-Hydroxyphenylacetic acid (Microbiome Metabolism): 2.546 | Z Abs, 2-Keto-L-gluconate (Microbiome Metabolism): 2.586 | Z Abs, Indoxyl sulfate (Microbiome Metabolism): 0.702 | Z Abs, Shikimate-3-phosphate (Microbiome Metabolism): 1.033 | Z Abs, p-Hydroxyphenylacetic acid (Microbiome Metabolism): 1.464 | Z Score, 2-Keto-L-gluconate (Microbiome Metabolism): 2.586 | Z Score, Indoxyl sulfate (Microbiome Metabolism): 0.702 | Z Score, Shikimate-3-phosphate (Microbiome Metabolism): 1.033 | Z Score, p-Hydroxyphenylacetic acid (Microbiome Metabolism): 1.464 | Linear Ratio, Azelaic acid [8]: 0.914 | VIP Score, Azelaic acid [8]: 1.929 | Z Abs, Azelaic acid [8]: 2.024
